In PMC5428013, “Peptide-Au Clusters Induced Tumor Cells Apoptosis via Targeting Glutathione Peroxidase-1: The Molecular Dynamics Assisted Experimental Studies” (Scientific Reports, 2017):
Entries after “also recorded” stand apart in the source; their conditions may differ.

Legend:
[1] = system: A549 cells; experiment: Apoptosis evaluation, Annexin V-FITC/PI dual staining; format: cell-based, human; details: 48 h
Description: Apoptosis detection with Annexin V-FITC/PI fluorescence dual staining was carried out by flow cytometry. Briefly, about 2 mL of 1 × 10^5 cells/mL of A549 cells were seeded in 6-well plate for 24 h before treatment with Au25P1_9 at different Au doses. The cells were treated with Au25P1_9 (Au dose at 0, 100, 200, 400 and 800 μM) for 48 h, respectively. Then culture medium and cells in each well were collected and centrifuged at 1200 rpm for 3 min. The supernatant was discarded and the cells were washed twice with PBS. 195 μL Annexin V-FITC binding buffer was added to re-suspend the cells at a dose of ~5 × 10^5 cells/mL in 1.5 mL Eppendorf tube. 5 μL Annexin V-FITC and 10 μL PI stains were added into each cell suspension, respectively. The tubes were incubated at room temperature under darkness for exactly 15 min. The fluorescence of the cells was determined immediately with flow cytometer. Cells at the early stage of apoptotic process were stained with the Annexin V-FITC alone. Necrotic cells were stained by both the Annexin V-FITC and PI. […] So, the percentage of apoptotic and necrosis cells can be analyzed by Cflow software.

[2] = system: A549 cells; experiment: Intracellular ROS level by flow cytometry (CM-H2DCFDA); format: cell-based, human; details: 48 h
Description: For CLSM observation, cells were prior cultured on glass-bottom dishes. Au25P1_9 was added to culture medium and the final Au dose was 800 µM. After 48 h. the cells were washed three times with PBS and incubated with 5 µM CM-H2DCFDA, at 37 °C under darkness for 30 min. Before CLSM observation, the culture medium was discarded and the cells were washed three times with PBS, supplemented with fresh culture medium. Finally, ROS in cells were highlighted by green fluorescence emission of CM-H2DCFDA, imaged under Nikon Ti-e microscope with excitation at wavelengths of 488 nm. For flow cytometry analysis, cells were prior seeded on 6-well plate (at the density of 1 × 10^5 cells/well) for 24 h. Then the medium was discarded and fresh culture medium containing Au25P1_9 with Au dose at 800 μM was added. For another 48 h incubation, the cells were washed thrice with PBS, and incubated with 5 µM CM-H2DCFDA at 37 °C under darkness for 30 min. After washing with PBS, the cells were collected and suspended in ice cold PBS. Fluorescence intensity of 20,000 events was recorded using an Accuri C6 flow cytometer and the level of intracellular ROS was analyzed by Cflow software.

[3] = system: GPx-1; experiment: GPx-1 enzyme activity suppression in buffer; format: biochemical, bovine; details: 10 min
Source text: The peptides (N2H-CCYGGPEEEEEVG-COOH (named P1), NH2-CCYGGPDDDEDVG-COOH (named P2) and NH2-CCYGGPEEVEEVG-COOH (named P3)) were chemically synthesized by a solid phase method (China Peptides Co. Ltd, Purity: 98%). Hydrogen tetrachloroaurate (III) (HAuCl4·4H2O) was purchased from Sinopharm Chemical Reagent Co. Ltd. Sodium hydroxide (NaOH), nitric acid (HNO3), hydrochloric acid (HCl) and hydrogen peroxide (H2O2) were purchased from Beijing Chemical Reagent Co., China. Human non-small cell lung carcinoma cells (A549 cells), Henrietta Lacks strain of cancer cells (Hela cells) and human colon adenocarcinoma cells (HCT-8 cells) were from Cancer Institute and Hospital, Chinese Academy of Medical Sciences. Fetal bovine serum (FBS) and trypsin-EDTA were obtained from Gibco, USA. Penicillin-streptomycin solution, cell culture medium DMEM and RPMI 1640 were purchased from Hyclone. Hoechst 33342, LysoTracker®Green DND-26, and CM-H2DCFDA were from Molecular Probes, USA. NucView™ 488 Caspase-3 Assay Kit was bought from Biotium, USA. 5,5′,6,6′-tetrachloro-1,1′,3,3′-tetraethylbenzimidazolocarbocyanine iodide (JC-1), cell lysis buffer for Western and IP, phenylmethanesulfonyl fluoride (PMSF) and BCA Protein Assay Kit were obtained from Beyotime Institute of Biotechnology, China. Protease inhibitor cocktail tablets were from Roche Diagnostics, GmbH, Mannheim, Germany. Cell counting kit-8 (CCK-8) reagents and Annexin V-FITC/Propidium (PI) Apoptosis Detection Kit were purchased from Dojindo Laboratories, Japan. GPx from bovine erythrocytes […] was provided by Sigma Aldrich, USA. GPx Activity Colorimetric Assay Kit was provided by Biovision, USA. Anti-GPx-1 antibody was offered by Abcam, UK. PARP antibody, caspase-3 antibody and β-actin antibody were offered by Cell Signaling Technology, USA. Amicon ultra centrifugal filter devices (Merck Millipore, MWCO: 10 kDa) were used for purification steps. Ultrapure Millipore (Mini-Q) water (18.2 MΩ) was used throughout the experiments. […]
Pure GPx (lyophilized powder, ≥300 units/mg protein) were diluted by GPx sample buffer and incubated with peptide-Au clusters (Au25P1_9, Au25P2_9 and Au25P3_9) at a series of Au dose (0, 25, 100, 400 μM) for 10 min, respectively. […] The GPx activity of untreated samples was set as 100%, and that of peptide-Au clusters treated samples were expressed as a relative percentage of untreated ones.
Figure S12. Peptide-Au clusters treated GPx-1 activity measured in buffer solution. The decrease in NADPH absorbance measured at 340 nm during the oxidation of NADPH to NADP is the indicative of GPx activity,^1, 2 which is in a dose dependent manner in tube experiments when treated with serial doses of peptide-Au clusters.

[4] = system: A549 cells; experiment: Cellular location observed by CLSM; format: cell-based, human; details: 800 µM Au, 48 h, live A549 cells
Description: A549 cells were seeded on glass-bottom dishes (35 mm, MatTek Corporation) for confocal laser scanning microscopy (CLSM) observation. After 24 h, Au25P1_9 was added to culture medium and the final Au dose was 800 µM. The A549 cells were next exposed to Au25P1_9 for 48 h. Then the cells were washed three times with PBS and incubated with 10 µg/mL Hoechst 33342 at 37 °C under darkness for 10 min. Before observation, the culture medium was discarded and the cells were washed three times with PBS, supplemented with fresh culture medium. Finally, in A549 cells, the cell nucleus and Au25P1_9 were imaged under Nikon Ti-e microscope with excitation at wavelengths of 405 nm and 560 nm, respectively. To identify the accurate location of Au25P1_9 in cytoplasm of A549 cells, lysotracker green, a lysosome probe, was added in the medium after cells were incubated with Au25P1_9 for 48 h. The cells were then observed by CLSM with excitation at wavelengths of 488 nm and 560 nm, respectively.

GPx-1 activity (relative to untreated = 100%) ([3]; buffer, Au dose of 400 μM, GPx Activity Colorimetric Assay Kit, NADPH absorbance at 340 nm): 12%
Sequence: CCYGGPEEEEEVG [Au25P1_9, Au25 cluster coated by nine P1 peptides (…)]
cell apoptosis ratio ([1]; A549, Au25P1_9 dose 100 μM (Au)): 5.8%
cell apoptosis ratio ([1]; A549, Au25P1_9 dose 800 μM (Au)): 15.2%
cell apoptosis dose dependence ([1]; A549, Au dose 0, 100, 200, 400, 800 μM): dose-dependent manner
FL1-H fluorescence intensity (ROS) ([2]; Au dose 800 µM, with CM-H2DCFDA, CM-H2DCFDA only control 20088, untreated 2674): 43464
intracellular ROS level relative to control ([2]; Au dose of 800 μM, 5 µM CM-H2DCFDA, flow cytometry, 20,000 events): ~ 210%
GPx-1 activity suppression in buffer ([3]; Au dose 0, 25, 100, 400 μM): exhibits the best suppression capacity for GPx-1; also recorded: the most effective candidate for suppression of GPx-1 activity in buffer and cells
cellular location [4]: red emission can be observed in the cytoplasm of live A549 cells
